One test relates to Salmonella. As to the kind of experiment: Soft agar swimming assay. In kind it is cell-based, Salmonella enterica serovar Typhimurium. The conditions noted are these: 100 μM, 0.25% agar, 24 h, 25° C. The procedure:
Based on Kim & Surette (2003) Biol Proced Online 5, 189-196, swimming plates were made by mixing 30 ml TSB 1/20 with 0.25% agar. These plates contained either a final concentration of 100 μM agaric or the corresponding amount of DMSO. After 2 h drying at room temperature, 3 μl of an overnight culture was inoculated by piercing the surface of the agar with the pipette tip. The plates were incubated upright for 24 h at 25° C., afterwards the size of the halo was measured and visually recorded.

Test [1] has as its system Salmonella Typhimurium ATCC 14028. Put plainly: Staining of flagella. It is filed as cell-based, Salmonella enterica serovar Typhimurium. The conditions noted are these: 100 μM vs DMSO, 24 h. How it is done:
An ONC of Salmonella Typhimurium ATCC 14028 was diluted 1/100 in 5 ml TSB 1/20, with either a final concentration of 100 μM agaric or the corresponding amount of DMSO as a control. The planktonic cultures were incubated for 24 h at 25° C., shaking at 200 rpm. The flagella were stained according to Kearns and Losick (2003) Molecular microbiology 49, 581-590. Briefly, the stain consist of ten parts mordant (2 g tannic acid, 10 ml 5% phenol, 10 ml saturated aqueous AIK(SO4)2) mixed with one part stain (12% crystal violet in ethanol). 3 μl of sample was applied to a microscopic slide and covered with a 22 mm×40 mm coverslip. After placing the slide vertically, 10 μl was applied to the top edge of the coverslip in order to stain the sample due to capillary forces. Samples were visualized with phase contrast using a Zeiss Axio Imager Z1 microscope with an EC Plan Neofluar (×100 magnification/1.3 numerical aperture) objective.

For test [2] the test system is unchanged. Put plainly: Antibiofilm assay (static peg assay, Calgary biofilm device, crystal violet staining; planktonic growth via OD600). It is filed as cell-based, Salmonella enterica serovar Typhimurium. How it is done:
A static peg assay for the prevention of bacterial biofilm formation was used as described previously. A lid carrying 96 polystyrene pegs was fitted into a microtiter plate with a peg hanging into each well. Two-fold serial dilutions of the compounds in 100 μl liquid broth per well were prepared in the microtiter plate. Subsequently, an overnight culture was diluted 1:100 into the respective liquid broth, and 100 μl (˜10^6 cells) was added to each well of the microtiter plate, resulting in a total amount of 200 μl medium per well. After placing the lid on the microtiter plate, samples containing Salmonella, Pseudomonas or E. coli were incubated statically in TSB 1/20 for 48 h at 25° C., whereas S. aureus was incubated in undiluted TSB at 37° C. for 48 h. After incubation, the lid was removed from the microtiter plate and liquid culture was transferred to a new microtiter plate prior to determining the prior to determining the planktonic growth in each well via OD600 measurements using a Synergy MX multimode reader (Biotek, Winooski, VT). The pegs were washed once in 200 μl PBS and the remaining attached bacteria were stained for 30 min with 200 μl 0.1% crystal violet in an isopropanol-methanol-PBS solution (1:1:18). Excess stain was washed off by placing the pegs in a 96-well plate filled with 200 μl distilled water per well. Afterwards, the pegs were air dried for 30 min and the dye bound to the adherent cells dissolved into 200 μl 30% glacial acetic acid. The OD570 of each well was measured using a Synergy MX multimode reader. Data was analysed using the GraphPad Prism 6 software.

Test [3] relates to S. Typhimurium SL1344 (S1), S. Typhimurium ATCC14028 (S2) and E. coli MG1655 (E1). Put plainly: Mixed-species biofilm assay (CFU). It is filed as cell-based, Salmonella Typhimurium and E. coli. The source says: In situ, biofilms are typically complex communities consisting of various bacterial strains and species [Elias & Banin (2012) FEMS Microbiol Rev 36, 990-1004; Burmølle et al. (2014) Trends Microbiol 22, 84-91; Giaouris et al. (2015) Front Microbiol 6, Article 841; Mitri & Richard Foster (2013) Communities. Annual Review of Genetics 47, 247-273]. […] Microbial ecology 68, 146-154]. Hereto, a a previously characterized model community was utilized consisting of two Salmonella and one E. coli strain (S. Typhimurium SL1344 (S1), S. Typhimurium ATCC14028 (S2) and E. coli MG1655 (E1)). […] The reduced biofilm productivity of the mixed-species community is mainly due to the inhibition of the S2 strain (FIG. 6B). The lack of […] inhibition in mixed-species conditions is possibly due to agaric acid weakening the competitive interactions experienced by S1 (FIG. 6C). […] Consequently, […] detected the damage imposed by competition via its stress response systems and induces a competitive response. […] Therefore, it was subsequently explored whether agaric acid can interfere with the increased tolerance in mixed-species conditions by weakening the competition and preventing the induction of this competitive response.
ONCs of S1, S2 and E1 were normalized to an OD595 of 3.2 and added to a small (60 mm Ø) glass Petri dishes containing 10 ml of 1/20 TSB. The three strain were inoculated in a 1:1:1 ratio and incubated under static conditions at 25° C. for 48 h. The same total number of cells was inoculated in mono- and mixed-species conditions (˜12*10^7 cells ml^−1). Afterwards, the liquid above the biofilms was poured off and the biofilms were scraped off the bottom of the plate in 1 ml of PBS, passed through a syringe (25 G) and vortexed to break down the biofilm structure and ensure an homogenous suspension during dilution. The number of colony forming units (CFU) of biofilms was determined by plating. To differentiate between the strains, S1 was labelled with constitutive gfpmut3 on a plasmid, while S2 and E1 were labelled with plasmid-encoded constitutive dsRed.T4. […]

For the compound `CCCCCCCCCCCCCCCCC(C(=O)O)C(O)(CC(=O)O)C(=O)O` (stereo not shown) [Agaric acid, 2-hydroxynonadecane-1,2,3-tricarboxylic acid], the results for the “swimming motility (halo formation)” value in the test on Salmonella and with Salmonella (listed as agaric acid) were “no halo was formed” and “almost completely inhibited motility”, respectively. The flagellar appearance result in test [1] is “no differences in flagellar appearance”. The inhibition (commonly the drop in the measured response relative to a control, in per cent) at 800 µM in test [2] (Salmonella enterica, at 800 μM, crystal violet staining, read-out: inhibition of biofilm formation) turned out to be 99.9%. The “planktonic growth (OD600)” value in test [2] (after 48 h incubation in the Calgary biofilm device) was “not inhibited”. In addition, in test [2] (crystal violet staining, TSB 1/20, 48 h, 25° C.), the “concentrations at which biofilm formation is significantly prevented” value is recorded as “higher than 100 μM”. The “planktonic growth (OD600) at the highest concentration” value in test [2] (highest concentration tested) is on record as “enhanced”. For the same compound, the “competition experienced by S1 in presence of S2 and E1” value in test [3] was “weakens the competition experienced by S1”. Moreover, the “biofilm formation of S2 strain in the mixed-species community” value in test [3] (100 μM) is given as “significantly inhibited”. The “number of biofilm cells of mixed-species consortium attached to abiotic surface” value in test [3] (S1, S2 and E1 1:1:1, 48 h, 25° C.) is “significantly reduced the number of biofilm cells”.
